Experimental data published in ChEMBL document CHEMBL1201862, “PubChem BioAssay data set” (2004).
Active and inactive are the calls of the source.

Experiments:
cells [1] = type: functional, cell-based
cells [2] = type: functional, cell-based; remark: listed apart in the source
Caspase-3 = target: T1, Caspase-3 (Homo sapiens, UniProt P42574); assay: inhibition of recombinant caspase-3 activity – biochemical, luminescence, set 2, selectivity assay for SENP protease inhibitor project, SAR follow-up (AID 588599); type: functional
T1 sequence (P42574 whole entry): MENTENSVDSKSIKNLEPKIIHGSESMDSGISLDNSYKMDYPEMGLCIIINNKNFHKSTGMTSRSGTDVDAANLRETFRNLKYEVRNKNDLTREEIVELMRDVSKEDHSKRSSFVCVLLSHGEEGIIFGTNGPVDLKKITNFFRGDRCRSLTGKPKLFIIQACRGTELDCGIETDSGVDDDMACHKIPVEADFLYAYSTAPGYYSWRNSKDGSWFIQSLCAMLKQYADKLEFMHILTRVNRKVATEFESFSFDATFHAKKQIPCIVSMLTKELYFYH

[3] = target: T2, Sentrin-specific protease 8 (Homo sapiens, UniProt Q96LD8); assay: inhibition of sentrin protease 8 – biochemical, luminescence, set 2, SAR follow-up (AID 588601); type: functional
T2 sequence (Q96LD8 whole entry): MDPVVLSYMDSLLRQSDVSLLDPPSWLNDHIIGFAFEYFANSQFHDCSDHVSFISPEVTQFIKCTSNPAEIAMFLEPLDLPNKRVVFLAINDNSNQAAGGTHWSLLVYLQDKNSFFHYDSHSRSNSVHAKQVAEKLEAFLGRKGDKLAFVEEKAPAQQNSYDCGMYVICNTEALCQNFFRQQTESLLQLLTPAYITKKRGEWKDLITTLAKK

[4] = target: T3, Sentrin-specific protease 7 (Homo sapiens, UniProt Q9BQF6); assay: inhibition of human SENP7 cleavage activity – biochemical, luminescence, set 2, SAR follow-up (AID 588600); type: functional
T3 sequence (Q9BQF6 whole entry): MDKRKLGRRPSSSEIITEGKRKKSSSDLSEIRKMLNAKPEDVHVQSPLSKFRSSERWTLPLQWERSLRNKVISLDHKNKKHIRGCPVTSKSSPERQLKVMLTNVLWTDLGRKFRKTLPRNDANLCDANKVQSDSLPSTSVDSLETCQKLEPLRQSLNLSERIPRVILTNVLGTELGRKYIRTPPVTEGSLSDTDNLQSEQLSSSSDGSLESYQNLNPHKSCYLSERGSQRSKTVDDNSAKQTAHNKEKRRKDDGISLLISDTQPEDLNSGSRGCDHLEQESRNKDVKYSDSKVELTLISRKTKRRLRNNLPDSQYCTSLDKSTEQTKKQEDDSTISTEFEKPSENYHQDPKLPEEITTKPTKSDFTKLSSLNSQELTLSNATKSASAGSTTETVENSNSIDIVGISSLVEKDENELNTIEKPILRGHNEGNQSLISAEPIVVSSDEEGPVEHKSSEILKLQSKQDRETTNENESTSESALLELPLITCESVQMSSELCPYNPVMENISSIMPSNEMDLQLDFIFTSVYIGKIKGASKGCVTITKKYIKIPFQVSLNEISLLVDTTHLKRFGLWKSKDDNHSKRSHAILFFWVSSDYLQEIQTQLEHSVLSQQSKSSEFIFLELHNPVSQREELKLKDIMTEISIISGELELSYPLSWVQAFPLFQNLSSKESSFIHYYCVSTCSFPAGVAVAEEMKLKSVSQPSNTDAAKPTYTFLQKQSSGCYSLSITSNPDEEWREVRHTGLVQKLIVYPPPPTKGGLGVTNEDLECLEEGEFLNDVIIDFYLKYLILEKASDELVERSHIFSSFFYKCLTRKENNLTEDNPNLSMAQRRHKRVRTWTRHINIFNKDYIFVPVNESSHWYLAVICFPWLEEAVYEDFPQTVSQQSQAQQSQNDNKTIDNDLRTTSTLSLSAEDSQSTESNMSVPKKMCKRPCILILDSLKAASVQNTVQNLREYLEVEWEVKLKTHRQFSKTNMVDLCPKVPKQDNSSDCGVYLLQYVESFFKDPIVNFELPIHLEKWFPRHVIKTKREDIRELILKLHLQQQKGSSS

[5] = target: T4, Sentrin-specific protease 6 (Homo sapiens, UniProt Q9GZR1); assay: inhibition of human SENP6 catalytic domain – biochemical, luminescence, set 2, SAR follow-up (AID 588598); type: functional
T4 sequence (Q9GZR1 whole entry): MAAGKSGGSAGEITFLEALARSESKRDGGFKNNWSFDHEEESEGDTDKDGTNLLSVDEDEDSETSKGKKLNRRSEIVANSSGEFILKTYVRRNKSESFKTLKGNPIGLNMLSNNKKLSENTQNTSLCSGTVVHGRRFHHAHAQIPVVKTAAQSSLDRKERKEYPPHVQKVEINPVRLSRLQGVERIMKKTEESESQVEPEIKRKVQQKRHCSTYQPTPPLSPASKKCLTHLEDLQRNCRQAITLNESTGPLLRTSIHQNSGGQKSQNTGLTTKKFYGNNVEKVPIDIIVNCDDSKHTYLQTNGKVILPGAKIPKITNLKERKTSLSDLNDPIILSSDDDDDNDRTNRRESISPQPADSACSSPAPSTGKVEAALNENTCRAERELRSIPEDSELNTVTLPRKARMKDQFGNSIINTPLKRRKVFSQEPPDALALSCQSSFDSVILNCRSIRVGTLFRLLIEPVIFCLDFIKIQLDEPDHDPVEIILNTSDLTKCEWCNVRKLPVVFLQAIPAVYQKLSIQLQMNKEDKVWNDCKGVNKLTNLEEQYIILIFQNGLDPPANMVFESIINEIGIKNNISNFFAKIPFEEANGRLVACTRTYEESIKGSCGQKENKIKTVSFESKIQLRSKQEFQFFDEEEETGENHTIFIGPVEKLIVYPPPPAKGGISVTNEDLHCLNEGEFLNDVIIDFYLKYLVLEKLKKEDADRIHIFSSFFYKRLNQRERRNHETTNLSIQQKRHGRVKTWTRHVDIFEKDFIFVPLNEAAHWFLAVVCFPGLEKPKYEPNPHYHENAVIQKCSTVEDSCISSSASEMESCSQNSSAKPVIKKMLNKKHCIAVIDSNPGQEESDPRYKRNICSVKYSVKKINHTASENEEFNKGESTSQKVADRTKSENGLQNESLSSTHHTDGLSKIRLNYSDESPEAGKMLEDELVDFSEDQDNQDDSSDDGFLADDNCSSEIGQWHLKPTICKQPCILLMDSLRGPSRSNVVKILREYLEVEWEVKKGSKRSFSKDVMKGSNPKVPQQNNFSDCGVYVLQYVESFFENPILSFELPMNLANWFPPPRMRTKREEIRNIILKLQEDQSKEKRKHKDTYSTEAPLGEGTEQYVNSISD

[6] = target: Peroxisome proliferator-activated receptor gamma/Nuclear receptor coactivator 1 (Homo sapiens, UniProt P37231); assay: (§1) TR-FRET dose response biochemical High Throughput Screening assay for agonists of the steroid receptor coactivator 1 (SRC-1) recruitment by the peroxisome proliferator-activated receptor gamma (PPAR gamma): non-selective agonists. [Related pubchem assays (depositor defined):AID1300, AID1808, AID504735, AID631]; type: protein assay
Chain of Peroxisome proliferator-activated receptor gamma/Nuclear receptor coactivator 1 (P37231 whole entry): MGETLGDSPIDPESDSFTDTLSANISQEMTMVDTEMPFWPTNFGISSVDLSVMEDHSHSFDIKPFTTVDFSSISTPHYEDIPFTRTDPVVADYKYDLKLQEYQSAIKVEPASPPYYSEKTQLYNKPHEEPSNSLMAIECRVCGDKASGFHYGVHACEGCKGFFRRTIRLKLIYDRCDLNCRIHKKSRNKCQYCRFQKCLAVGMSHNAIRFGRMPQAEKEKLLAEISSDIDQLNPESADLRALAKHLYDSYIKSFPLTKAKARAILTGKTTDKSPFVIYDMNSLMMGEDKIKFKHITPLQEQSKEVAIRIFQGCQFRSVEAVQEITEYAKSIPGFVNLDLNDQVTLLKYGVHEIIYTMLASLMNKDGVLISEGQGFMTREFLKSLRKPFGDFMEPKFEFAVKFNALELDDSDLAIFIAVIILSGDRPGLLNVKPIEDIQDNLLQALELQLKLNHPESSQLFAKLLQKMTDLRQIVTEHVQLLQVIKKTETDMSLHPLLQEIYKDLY
Chain of Peroxisome proliferator-activated receptor gamma/Nuclear receptor coactivator 1 (Q15788 whole entry, further chain): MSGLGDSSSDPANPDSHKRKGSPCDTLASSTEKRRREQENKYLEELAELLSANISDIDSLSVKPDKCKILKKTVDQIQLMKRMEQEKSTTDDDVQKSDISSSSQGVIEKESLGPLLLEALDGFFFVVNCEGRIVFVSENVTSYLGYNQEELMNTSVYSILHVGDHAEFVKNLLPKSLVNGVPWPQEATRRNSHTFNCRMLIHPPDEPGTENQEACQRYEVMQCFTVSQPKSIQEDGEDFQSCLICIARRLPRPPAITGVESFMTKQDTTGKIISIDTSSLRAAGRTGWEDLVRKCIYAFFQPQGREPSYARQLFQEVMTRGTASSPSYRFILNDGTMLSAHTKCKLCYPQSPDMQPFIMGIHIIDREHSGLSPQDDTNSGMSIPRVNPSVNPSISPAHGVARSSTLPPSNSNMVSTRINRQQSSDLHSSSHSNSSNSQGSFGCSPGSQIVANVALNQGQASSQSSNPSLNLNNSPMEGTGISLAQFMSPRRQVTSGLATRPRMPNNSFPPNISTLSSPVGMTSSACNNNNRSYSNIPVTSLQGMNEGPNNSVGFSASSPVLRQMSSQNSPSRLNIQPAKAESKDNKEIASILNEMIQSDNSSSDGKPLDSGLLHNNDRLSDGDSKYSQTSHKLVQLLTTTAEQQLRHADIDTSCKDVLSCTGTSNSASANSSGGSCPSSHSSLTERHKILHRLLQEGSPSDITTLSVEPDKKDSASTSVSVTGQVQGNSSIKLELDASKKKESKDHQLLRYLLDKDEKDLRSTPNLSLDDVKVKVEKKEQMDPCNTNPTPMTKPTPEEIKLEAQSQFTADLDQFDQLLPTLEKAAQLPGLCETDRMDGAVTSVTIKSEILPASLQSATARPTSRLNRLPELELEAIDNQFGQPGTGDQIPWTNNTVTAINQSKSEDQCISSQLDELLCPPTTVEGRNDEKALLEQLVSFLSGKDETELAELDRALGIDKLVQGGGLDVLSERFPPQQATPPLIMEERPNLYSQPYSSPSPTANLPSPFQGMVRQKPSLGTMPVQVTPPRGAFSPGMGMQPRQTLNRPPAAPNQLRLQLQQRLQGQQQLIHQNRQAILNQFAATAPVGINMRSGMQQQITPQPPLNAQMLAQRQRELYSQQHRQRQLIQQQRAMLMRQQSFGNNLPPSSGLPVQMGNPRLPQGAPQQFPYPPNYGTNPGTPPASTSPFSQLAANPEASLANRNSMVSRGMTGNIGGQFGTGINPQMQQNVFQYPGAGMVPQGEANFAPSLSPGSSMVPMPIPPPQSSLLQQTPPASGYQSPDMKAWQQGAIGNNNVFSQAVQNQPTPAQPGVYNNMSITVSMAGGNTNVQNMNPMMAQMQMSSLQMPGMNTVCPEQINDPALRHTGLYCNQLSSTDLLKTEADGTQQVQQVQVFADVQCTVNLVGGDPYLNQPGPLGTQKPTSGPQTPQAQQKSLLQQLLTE

[7] = target: Peroxisome proliferator-activated receptor gamma/Nuclear receptor coactivator 3 (Homo sapiens, UniProt P37231); assay: as §1, with “3 (SRC-3)” for “1 (SRC-1)”, “assays: 1301 (Confirmation screen.), 1048 (Primary screen.)]” for “assays (depositor defined):AID1300, AID1808, AID504735, AID631]”; type: functional
Chain of Peroxisome proliferator-activated receptor gamma/Nuclear receptor coactivator 3 (P37231 whole entry): as the sequence (P37231 whole entry) above
Chain of Peroxisome proliferator-activated receptor gamma/Nuclear receptor coactivator 3 (Q9Y6Q9 whole entry, further chain): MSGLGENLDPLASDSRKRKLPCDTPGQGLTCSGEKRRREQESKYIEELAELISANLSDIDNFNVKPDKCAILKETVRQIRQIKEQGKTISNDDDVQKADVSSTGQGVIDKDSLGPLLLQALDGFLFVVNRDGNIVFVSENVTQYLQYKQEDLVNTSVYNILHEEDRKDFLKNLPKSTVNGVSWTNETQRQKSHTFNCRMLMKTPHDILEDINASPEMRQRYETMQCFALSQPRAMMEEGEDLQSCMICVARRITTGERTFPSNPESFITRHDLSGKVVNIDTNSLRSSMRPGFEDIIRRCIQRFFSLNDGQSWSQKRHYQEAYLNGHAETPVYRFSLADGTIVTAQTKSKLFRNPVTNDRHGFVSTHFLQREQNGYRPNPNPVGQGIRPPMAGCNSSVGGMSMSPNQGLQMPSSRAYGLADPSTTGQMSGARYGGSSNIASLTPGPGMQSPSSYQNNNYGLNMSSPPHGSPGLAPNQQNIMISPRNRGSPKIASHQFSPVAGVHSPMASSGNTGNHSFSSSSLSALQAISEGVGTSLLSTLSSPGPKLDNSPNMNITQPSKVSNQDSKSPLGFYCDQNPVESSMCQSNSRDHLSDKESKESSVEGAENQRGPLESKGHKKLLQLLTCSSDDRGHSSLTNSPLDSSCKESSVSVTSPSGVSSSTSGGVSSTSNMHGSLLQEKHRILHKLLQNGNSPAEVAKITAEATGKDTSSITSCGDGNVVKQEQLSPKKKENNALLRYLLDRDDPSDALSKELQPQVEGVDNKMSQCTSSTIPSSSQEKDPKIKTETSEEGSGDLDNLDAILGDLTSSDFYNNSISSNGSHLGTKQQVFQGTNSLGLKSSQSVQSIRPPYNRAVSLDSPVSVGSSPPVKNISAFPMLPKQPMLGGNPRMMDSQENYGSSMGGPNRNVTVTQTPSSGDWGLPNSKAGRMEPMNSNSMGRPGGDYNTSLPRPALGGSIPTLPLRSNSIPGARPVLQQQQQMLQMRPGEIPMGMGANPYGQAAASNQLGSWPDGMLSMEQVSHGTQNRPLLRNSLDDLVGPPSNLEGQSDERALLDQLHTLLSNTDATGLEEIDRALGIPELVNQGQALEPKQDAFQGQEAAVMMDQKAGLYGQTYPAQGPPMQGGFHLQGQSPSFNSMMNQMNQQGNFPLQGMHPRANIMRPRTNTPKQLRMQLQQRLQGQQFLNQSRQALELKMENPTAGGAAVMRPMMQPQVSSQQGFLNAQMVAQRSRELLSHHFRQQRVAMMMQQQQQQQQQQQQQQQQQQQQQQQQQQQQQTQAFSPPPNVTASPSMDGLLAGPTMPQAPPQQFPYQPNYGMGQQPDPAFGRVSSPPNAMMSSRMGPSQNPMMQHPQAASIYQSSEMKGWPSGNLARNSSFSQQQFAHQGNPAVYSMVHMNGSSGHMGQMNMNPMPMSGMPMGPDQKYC

[8] = target: Peroxisome proliferator-activated receptor gamma/Nuclear receptor coactivator 2 (Homo sapiens, UniProt P37231); assay: TR-FRET dose response biochemical High Throughput Screening assay for agonists of the steroid receptor coactivator 2 (SRC-2) recruitment by the peroxisome proliferator-activated receptor gamma (PPAR gamma): non-selective agonists. [Related pubchem assays: 1297, 1032 ]; type: functional
Protein Wnt-3a = Protein Wnt-3a (Mus musculus, UniProt P27467); assay: antagonism of Wnt3a pathway luciferase reporter – Wnt-LIGHT cells, luminescence, selectivity assay for Gli-SUFU antagonist project, dose response (AID 651570); type: functional; settings: read-out: IC50_Mean;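 further: Wnt-LIGHT reporter cells stimulated with conditioned medium from Wnt3a-producing cells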
[9] = target: T5, Corticotropin-releasing factor receptor 2/Corticotropin-releasing factor-binding protein (Homo sapiens, UniProt P24387+Q13324); assay: Dose Response confirmation of uHTS hits for small molecule antagonists of the CRF-binding protein and CRF-R2 receptor complex.; type: functional; settings: read-out: IC50_Mean
T5 sequence (Q13324 whole entry): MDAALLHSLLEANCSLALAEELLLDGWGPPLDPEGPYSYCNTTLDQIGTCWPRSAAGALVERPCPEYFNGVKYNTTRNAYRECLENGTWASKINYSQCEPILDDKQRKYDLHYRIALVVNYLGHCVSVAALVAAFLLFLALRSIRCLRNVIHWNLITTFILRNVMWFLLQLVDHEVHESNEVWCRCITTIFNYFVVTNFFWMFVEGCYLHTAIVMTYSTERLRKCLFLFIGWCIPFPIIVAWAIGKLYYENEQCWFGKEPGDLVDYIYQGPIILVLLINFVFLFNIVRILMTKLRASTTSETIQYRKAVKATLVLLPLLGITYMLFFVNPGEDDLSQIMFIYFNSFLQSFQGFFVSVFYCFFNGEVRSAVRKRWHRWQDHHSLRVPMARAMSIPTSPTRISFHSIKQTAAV
T5 sequence (P24387 whole entry): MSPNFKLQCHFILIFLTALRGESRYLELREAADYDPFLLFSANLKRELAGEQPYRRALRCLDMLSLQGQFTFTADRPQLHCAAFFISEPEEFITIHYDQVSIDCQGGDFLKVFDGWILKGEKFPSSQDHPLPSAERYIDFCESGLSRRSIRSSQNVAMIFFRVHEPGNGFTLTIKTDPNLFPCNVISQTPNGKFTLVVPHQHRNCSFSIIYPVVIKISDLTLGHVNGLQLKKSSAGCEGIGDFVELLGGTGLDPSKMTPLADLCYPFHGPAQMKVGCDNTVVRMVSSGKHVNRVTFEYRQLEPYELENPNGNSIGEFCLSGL

[10] = target: T5, Corticotropin-releasing factor receptor 2/Corticotropin-releasing factor-binding protein; assay: activators of CRF receptor 2 with binding protein – uHTS hits, confirmation (AID 602473); type: functional; settings: read-out: EC50_Mean
[11] = blockers of CRF-binding protein–CRF-R2 complex – cell-based, uHTS hits, 384-well, dose response (AID 651639); type: functional, Homo sapiens; settings: read-out: IC50_Mean
[12] = target: Photoreceptor-specific nuclear receptor (Homo sapiens, UniProt Q9Y5X4); type: functional, cell-based;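 further: CHO-S cells with Gal4-NCOR and VP16-NR2E3 two-hybrid luciferase reporter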
Chain of Photoreceptor-specific nuclear receptor (Q9Y5X4 whole entry, the tested form may be a part): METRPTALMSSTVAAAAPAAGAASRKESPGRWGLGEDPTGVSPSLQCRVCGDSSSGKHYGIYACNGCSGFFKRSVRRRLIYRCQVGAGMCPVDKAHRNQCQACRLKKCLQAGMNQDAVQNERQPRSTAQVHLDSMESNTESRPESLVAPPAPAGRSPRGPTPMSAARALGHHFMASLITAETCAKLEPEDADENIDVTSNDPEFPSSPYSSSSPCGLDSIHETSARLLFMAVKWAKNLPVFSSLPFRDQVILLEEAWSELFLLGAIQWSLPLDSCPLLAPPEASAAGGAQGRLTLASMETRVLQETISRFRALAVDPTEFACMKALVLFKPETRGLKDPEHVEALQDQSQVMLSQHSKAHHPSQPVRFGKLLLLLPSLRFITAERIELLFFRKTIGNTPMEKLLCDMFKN

[13] = bead-based luminescence quenchers, dual-tagged ARNT – biochemical, AlphaScreen, cherry-pick, artefact control for ARNT-TACC3 interaction inhibitor project, dose response (AID 651705); type: functional;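 further: AlphaScreen bead proximity signal that flags compounds interfering with the detection technology; potency reflects signal decrease which marks the compound as an assay artifact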
[14] = inhibition of ARNT PAS-B/TACC3 complex formation – biochemical, AlphaScreen, cherry-picked samples, confirmation (AID 651703); type: functional, Homo sapiens;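 further: His-tagged ARNT PAS-B domain paired with GST-TACC3 E629A dimer coactivator fragment; potency of inhibitors that break up the complex and lower AlphaScreen signal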
[15] = target: Mitogen-activated protein kinase 10 (Homo sapiens, UniProt P53779); assay: Dose response biochemical screening assay for inhibitors of c-Jun N-Terminal Kinase 3 (JNK3). [Related pubchem assays: 746 ]
Interleukin-8 = target: T6, Interleukin-8 (Homo sapiens, UniProt P10145); assay: Dose Response confirmation of uHTS small molecule hits for cystic fibrosis induced NFkb Inhibitors in a PAF-induced IL8 counterscreen.; type: functional; settings: read-out: IC50_Mean
T6 sequence (P10145 whole entry): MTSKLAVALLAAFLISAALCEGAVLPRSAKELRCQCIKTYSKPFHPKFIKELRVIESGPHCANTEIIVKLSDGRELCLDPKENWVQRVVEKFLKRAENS

[16] = blockers of HIV-1 envelope-mediated cell-cell fusion – cherry-pick, dose response (AID 652057); type: functional, cell-based
[17] = off-target signal loss in HeLa-CEM21 co-culture – HeLa F-luc CTL cells, cherry-picked, counter-screen for HIV-1 Env fusion inhibitor project, dose response (AID 652040); type: functional, cell-based;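 further: potency for signal decrease marking cytotoxic or nonspecific inhibition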
[18] = HIV-1 AD8 envelope cell-cell fusion blockers – cherry-pick, dose response (AID 652062); type: functional, cell-based;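 further: luciferase signal from cell-cell fusion driven by HIV-1 clade B AD8 Env; potency is for inhibitors of fusion seen as a drop in luminescence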
[19] = target: Adenosylmethionine-8-amino-7-oxononanoate aminotransferase (Mycobacterium tuberculosis, UniProt P9WQ81); assay: Mycobacterium tuberculosis BioA enzyme inhibitor Measured in Biochemical System Using Plate Reader - 2163-02_Inhibitor_Dose_CherryPick_Activity.; type: functional, Mycobacterium tuberculosis UT205
Chain of Adenosylmethionine-8-amino-7-oxononanoate aminotransferase (P9WQ81 whole entry): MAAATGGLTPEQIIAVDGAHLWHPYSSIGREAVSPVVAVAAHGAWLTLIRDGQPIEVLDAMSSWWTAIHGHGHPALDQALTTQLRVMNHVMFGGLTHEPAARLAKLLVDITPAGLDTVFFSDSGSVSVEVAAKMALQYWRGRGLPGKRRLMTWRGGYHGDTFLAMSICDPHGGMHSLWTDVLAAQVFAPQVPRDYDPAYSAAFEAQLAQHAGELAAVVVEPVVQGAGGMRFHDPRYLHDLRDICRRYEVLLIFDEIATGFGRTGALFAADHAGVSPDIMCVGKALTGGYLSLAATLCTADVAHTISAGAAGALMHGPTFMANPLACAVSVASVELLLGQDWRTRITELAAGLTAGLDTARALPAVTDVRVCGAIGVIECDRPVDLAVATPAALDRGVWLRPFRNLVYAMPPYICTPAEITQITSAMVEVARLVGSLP

H9c2 = assay: cells; type: functional, cell-based; settings: Rattus norvegicus, H9c2, Myocardium;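 further: confirmatory concentration-response retest of ultra-high-throughput screening hits for modulation of myocardial damage; cell death induced by hydrogen peroxide oxidative stress; compound pretreatment for 60 min then peroxide exposure for 2 h; potency is for protecting the cells against peroxide damage rather than for killing them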
Melanocortin receptor 4 = Melanocortin receptor 4 (Homo sapiens, UniProt P32245); type: functional, cell-based;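 further: Cell-based assay with luminescence read-out, confirmatory dose-response testing for agonist activity of biased ligands at MC4R; human U2OS cells with tagged receptor and beta-arrestin; potency of agonists that increase receptor coupling to beta-arrestin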
Chain of Melanocortin receptor 4 (P32245 whole entry): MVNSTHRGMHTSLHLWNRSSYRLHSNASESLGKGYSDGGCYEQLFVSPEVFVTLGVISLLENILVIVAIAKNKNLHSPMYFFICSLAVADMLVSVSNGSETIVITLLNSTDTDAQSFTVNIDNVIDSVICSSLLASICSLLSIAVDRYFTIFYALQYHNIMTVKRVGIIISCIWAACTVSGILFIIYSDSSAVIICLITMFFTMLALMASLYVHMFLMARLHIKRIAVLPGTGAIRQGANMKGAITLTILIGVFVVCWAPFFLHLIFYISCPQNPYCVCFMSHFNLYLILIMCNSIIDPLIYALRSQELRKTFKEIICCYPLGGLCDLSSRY

In the case of `CN(/N=C/c1c[nH]c2ccccc12)c1cnn(-c2ccc(F)c(Cl)c2)c(=O)c1Cl`, the EC50 (cells [1]) was > 350 µM (not active), the EC50 (cells [2]) was 55.6 µM (active) and the IC50 (Caspase-3) was > 99 µM (inactive). For the same compound, the IC50 [3] was > 99 µM (inactive), the IC50 [4] was > 99 µM (inactive) and the IC50 [5] was > 99 µM (inactive).

For `CCOC(=O)CSc1c(-c2cccs2)[nH]c2ccccc12`, the EC50 [6] was 13.2 µM (inactive), the EC50 [7] was 53.8 µM (not active) and the EC50 [8] was 13.8 µM (not active). The IC50 (Protein Wnt-3a) was 17 µM (active).

For `O=[N+]([O-])c1ccc(NS(=O)(=O)c2ccccc2)c(Cl)c1`, the IC50 [9] was 4.45 µM (active), the EC50 [10] was > 53 µM (inactive) and the IC50 [11] was > 20 µM (inactive). The IC50 [12] was 3.22 µM (active).

With `Cc1ccccc1/C=N/N1C(=O)CSC1=S` the AC50 [13] was 135 µM (active) and the AC50 [14] was 109 µM (active).

With `COc1ccc2ncn(-c3ccccc3)c2c1` the IC50 [15] was 34.9 µM (not active), the IC50 (Interleukin-8) was 17.3 µM (inactive) and the AC50 [16] was 11.6 µM (active). For the same compound, the AC50 [17] was 20.1 µM (active) and the AC50 [18] was 40.2 µM (active).

In the case of `O=C1NC(=O)C(=Cc2ccc(Cl)cc2Cl)S1`, the IC50 [12] was 4.65 µM (active).

With `CC(=O)c1ccc(C(=O)N2CCCC(Nc3ccc(C(C)C)cc3)C2)s1` (stereo not drawn) the EC50 (cells [1]) was > 350 µM (not active), the EC50 (cells [2]) was > 350 µM (not active) and the AC50 [19] was 833 nM (active).

For `COc1cccc(-c2cnc3c(NC=O)cc(-c4ccc(O)c(OC)c4)cn23)c1`, the IC50 (H9c2) was > 79 µM (inactive) and the EC50 (Melanocortin receptor 4) was > 89.2 µM (inactive).

In the case of `O=C(Nc1ccc(F)c(F)c1)C1CCN(S(=O)(=O)c2cccs2)CC1`, the AC50 [19] was 564 nM (active).
